Test results as given in ChEMBL document CHEMBL2073816 (J Biol Chem, 2001).

Assays:
[1] = target: T1, Solute carrier family 22 member 2 (Homo sapiens, UniProt O15244); experiment: TP_TRANSPORTER: inhibition of Choline uptake (Choline: 10 uM, NMN: 5000 uM) in Xenopus laevis oocytes; format: functional, cell-based; settings: oocyte
T1 sequence (O15244 whole entry): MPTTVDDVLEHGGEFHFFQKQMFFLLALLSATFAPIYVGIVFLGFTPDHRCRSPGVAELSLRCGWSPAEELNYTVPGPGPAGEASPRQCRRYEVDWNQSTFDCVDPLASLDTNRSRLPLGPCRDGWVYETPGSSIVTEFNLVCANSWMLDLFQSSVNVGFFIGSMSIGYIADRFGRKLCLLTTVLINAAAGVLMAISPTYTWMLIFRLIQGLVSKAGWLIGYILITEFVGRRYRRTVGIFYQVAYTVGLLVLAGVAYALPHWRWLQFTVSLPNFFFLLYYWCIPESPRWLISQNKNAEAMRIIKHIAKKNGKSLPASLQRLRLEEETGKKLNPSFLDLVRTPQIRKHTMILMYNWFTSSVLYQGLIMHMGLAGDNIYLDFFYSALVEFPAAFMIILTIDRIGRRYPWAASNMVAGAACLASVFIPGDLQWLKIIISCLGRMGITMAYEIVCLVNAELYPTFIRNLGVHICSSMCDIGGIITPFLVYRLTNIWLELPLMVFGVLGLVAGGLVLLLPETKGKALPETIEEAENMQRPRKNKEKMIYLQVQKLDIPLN

[2] = target: T2, Solute carrier family 22 member 1 (Rattus norvegicus, UniProt Q63089); experiment: (§1) TP_TRANSPORTER: inhibition of Choline uptake (Choline: 10 uM, Quinine: 200 uM) in Xenopus laevis oocytes; format: functional, cell-based; settings: oocyte
T2 sequence (Q63089 whole entry): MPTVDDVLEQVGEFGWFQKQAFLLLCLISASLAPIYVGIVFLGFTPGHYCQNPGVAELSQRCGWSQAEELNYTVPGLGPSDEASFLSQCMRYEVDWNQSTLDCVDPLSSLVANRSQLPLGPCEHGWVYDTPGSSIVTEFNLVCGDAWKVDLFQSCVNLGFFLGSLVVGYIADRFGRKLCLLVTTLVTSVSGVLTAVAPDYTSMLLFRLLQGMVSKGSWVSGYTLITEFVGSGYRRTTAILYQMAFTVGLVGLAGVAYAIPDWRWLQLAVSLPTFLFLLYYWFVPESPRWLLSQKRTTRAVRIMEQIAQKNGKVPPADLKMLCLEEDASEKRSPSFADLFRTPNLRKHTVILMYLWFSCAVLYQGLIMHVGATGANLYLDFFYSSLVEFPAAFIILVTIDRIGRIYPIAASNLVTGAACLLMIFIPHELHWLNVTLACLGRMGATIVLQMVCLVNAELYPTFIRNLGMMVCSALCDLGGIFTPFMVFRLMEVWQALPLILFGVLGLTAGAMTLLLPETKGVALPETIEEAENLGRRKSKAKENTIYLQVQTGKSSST

[3] = target: T3, Solute carrier family 22 member 2 (Rattus norvegicus, UniProt Q9R0W2); experiment: as §1; format: functional, cell-based; settings: oocyte
T3 sequence (Q9R0W2 whole entry): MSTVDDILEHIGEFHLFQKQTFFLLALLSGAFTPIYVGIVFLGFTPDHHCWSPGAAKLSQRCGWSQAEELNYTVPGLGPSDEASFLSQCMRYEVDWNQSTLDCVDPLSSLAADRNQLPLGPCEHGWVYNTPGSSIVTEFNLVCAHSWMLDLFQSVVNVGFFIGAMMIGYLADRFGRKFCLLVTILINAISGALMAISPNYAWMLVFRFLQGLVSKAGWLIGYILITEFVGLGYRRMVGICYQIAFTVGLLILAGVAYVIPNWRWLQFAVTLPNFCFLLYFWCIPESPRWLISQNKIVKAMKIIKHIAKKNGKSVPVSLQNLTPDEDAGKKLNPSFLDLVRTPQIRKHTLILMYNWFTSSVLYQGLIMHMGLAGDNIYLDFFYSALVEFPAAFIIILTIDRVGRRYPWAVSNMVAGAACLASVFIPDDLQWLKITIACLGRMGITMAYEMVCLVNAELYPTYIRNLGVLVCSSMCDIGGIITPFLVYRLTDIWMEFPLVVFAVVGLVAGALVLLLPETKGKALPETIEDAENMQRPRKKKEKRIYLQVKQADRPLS

[4] = target: T1, Solute carrier family 22 member 2; experiment: TP_TRANSPORTER: inhibition of Choline uptake (Choline: 10 uM, TPeA: 200 uM) in Xenopus laevis oocytes; format: functional, cell-based; settings: oocyte
[5] = substrate: C[N+](C)(C)CCO; experiment: cells, lysate or membranes named

With CNC(=O)c1cccnc1 [NICOTINYL METHYLAMIDE] as the molecule, how does the Activity [1] read?
The Activity was “inhibitor [+]”.

Which Activity [2] does the source give for C=C[C@H]1C[N@@]2CC[C@H]1C[C@H]2[C@H](O)c1ccnc2ccc(OC)cc12 [QUININE] here?
The Activity was “inhibitor [+]”.

And the Activity [3]?
The Activity was “inhibitor [+]”.

For CCCCC[N+](CCCCC)(CCCCC)CCCCC [TETRAPENTYLAMMONIUM], which Activity [4] is on record?
The Activity was “inhibitor [+]”.

B1: Solute carrier family 22 member 2 (Homo sapiens) (protein)
chain: MPTTVDDVLEHGGEFHFFQKQMFFLLALLSATFAPIYVGIVFLGFTPDHRCRSPGVAELSLRCGWSPAEELNYTVPGPGPAGEASPRQCRRYEVDWNQSTFDCVDPLASLDTNRSRLPLGPCRDGWVYETPGSSIVTEFNLVCANSWMLDLFQSSVNVGFFIGSMSIGYIADRFGRKLCLLTTVLINAAAGVLMAISPTYTWMLIFRLIQGLVSKAGWLIGYILITEFVGRRYRRTVGIFYQVAYTVGLLVLAGVAYALPHWRWLQFTVSLPNFFFLLYYWCIPESPRWLISQNKNAEAMRIIKHIAKKNGKSLPASLQRLRLEEETGKKLNPSFLDLVRTPQIRKHTMILMYNWFTSSVLYQGLIMHMGLAGDNIYLDFFYSALVEFPAAFMIILTIDRIGRRYPWAASNMVAGAACLASVFIPGDLQWLKIIISCLGRMGITMAYEIVCLVNAELYPTFIRNLGVHICSSMCDIGGIITPFLVYRLTNIWLELPLMVFGVLGLVAGGLVLLLPETKGKALPETIEEAENMQRPRKNKEKMIYLQVQKLDIPLN
For B1, which Km [5] is on record?
The Km was 102 µM.

B2: Solute carrier family 22 member 2 (Rattus norvegicus) (protein)
chain: MSTVDDILEHIGEFHLFQKQTFFLLALLSGAFTPIYVGIVFLGFTPDHHCWSPGAAKLSQRCGWSQAEELNYTVPGLGPSDEASFLSQCMRYEVDWNQSTLDCVDPLSSLAADRNQLPLGPCEHGWVYNTPGSSIVTEFNLVCAHSWMLDLFQSVVNVGFFIGAMMIGYLADRFGRKFCLLVTILINAISGALMAISPNYAWMLVFRFLQGLVSKAGWLIGYILITEFVGLGYRRMVGICYQIAFTVGLLILAGVAYVIPNWRWLQFAVTLPNFCFLLYFWCIPESPRWLISQNKIVKAMKIIKHIAKKNGKSVPVSLQNLTPDEDAGKKLNPSFLDLVRTPQIRKHTLILMYNWFTSSVLYQGLIMHMGLAGDNIYLDFFYSALVEFPAAFIIILTIDRVGRRYPWAVSNMVAGAACLASVFIPDDLQWLKITIACLGRMGITMAYEMVCLVNAELYPTYIRNLGVLVCSSMCDIGGIITPFLVYRLTDIWMEFPLVVFAVVGLVAGALVLLLPETKGKALPETIEDAENMQRPRKKKEKRIYLQVKQADRPLS
For B2, which Km [5] is on record?
Its Km is 441 µM.

B3: Solute carrier family 22 member 1 (Rattus norvegicus) (protein)
chain: MPTVDDVLEQVGEFGWFQKQAFLLLCLISASLAPIYVGIVFLGFTPGHYCQNPGVAELSQRCGWSQAEELNYTVPGLGPSDEASFLSQCMRYEVDWNQSTLDCVDPLSSLVANRSQLPLGPCEHGWVYDTPGSSIVTEFNLVCGDAWKVDLFQSCVNLGFFLGSLVVGYIADRFGRKLCLLVTTLVTSVSGVLTAVAPDYTSMLLFRLLQGMVSKGSWVSGYTLITEFVGSGYRRTTAILYQMAFTVGLVGLAGVAYAIPDWRWLQLAVSLPTFLFLLYYWFVPESPRWLLSQKRTTRAVRIMEQIAQKNGKVPPADLKMLCLEEDASEKRSPSFADLFRTPNLRKHTVILMYLWFSCAVLYQGLIMHVGATGANLYLDFFYSSLVEFPAAFIILVTIDRIGRIYPIAASNLVTGAACLLMIFIPHELHWLNVTLACLGRMGATIVLQMVCLVNAELYPTFIRNLGMMVCSALCDLGGIFTPFMVFRLMEVWQALPLILFGVLGLTAGAMTLLLPETKGVALPETIEEAENLGRRKSKAKENTIYLQVQTGKSSST
Which Km [5] does the source give for B3 here?
Its Km is 346 µM.
